Literature values in paper PMC3018413, “Uptake and Metabolism of the Novel Peptide Angiotensin-(1-12) by Neonatal Cardiac Myocytes” (PLoS ONE, 2011).

Legend:
[1] = tested on: Ang II formation from Ang-(1–12); settings: ref Prosser et al. [29] as printed
From the text: In the controlled environment of a cell culture system, neonatal cardiac myocytes of SHR and WKY metabolized ^125I-Ang-(1–12) into Ang I, leading to sequential production of Ang II, Ang-(1–7), and other smaller angiotensin fragments. […] This new observation is in ...

[2] = tested on: human renal tubular epithelial cells

CC(C)C[C@H](NC(=O)[C@@H](NC(=O)N[C@@H](Cc1ccccc1)C(=O)O)[C@@H]1CCN=C(N)N1)C(=O)N[C@H](C=O)Cc1ccccc1 [chymostatin]
inhibition of Ang II formation from Ang-(1–12) [1]: completely inhibited

B1: angiotensinogen: angiotensinogen protein bound to human renal tubular epithelial cells, cited study (protein, UniProt P01019 25-476, looked up)
Angiotensinogen: DRVYIHPFHLVIHNESTCEQLAKANAGKPKDPTFIPAPIQAKTSPVDEKALQDQLVLVAAKLDTEDKLRAAMVGMLANFLGFRIYGMHSELWGVVHGATVLSPTAVFGTLASLYLGALDHTADRLQAILGVPWKDKNCTSRLDAHKVLSALQAVQGLLVAQGRADSQAQLLLSTVVGVFTAPGLHLKQPFVQGLALYTPVVLPRSLDFTELDVAAEKIDRFMQAVTGWKTGCSLMGASVDSTLAFNTYVHFQGKMKGFSLLAEPQEFWVDNSTSVSVPMLSGMGTFQHWSDIQDNFSVTQVPFTESACLLLIQPHYASDLDKVEGLTFQQNSLNWMKKLSPRTIHLTMPQLVLQGSYDLQDLLAQAELPAILHTELNLQKLSNDRIRVGEVLNSIFFELEADEREPTESTQQLNKPEVLEVTLNRPFLFAVYDQSATALHFLGRVANPLSTA
bound angiotensinogen that could be displaced [2]: ≤ 50%
